Source: PubChem BioAssay (NCI)
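Compound exposure: 48 hours, 5 concentrations, 96-well plates. TGI is the concentration that stops growth completely.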

Columns and labels:
Assay in all cases: NCI-60 cell line screen, 48 h
MOLT-4 leukemia = test system: MOLT-4 leukemia
MDA-MB-435 = test system: MDA-MB-435
MCF7 breast = test system: MCF7 breast
HL-60(TB) leukemia = test system: HL-60(TB) leukemia
TK-10 renal = test system: TK-10 renal
HOP-92 NSCLC = test system: HOP-92 NSCLC
MALME-3M melanoma = test system: MALME-3M melanoma
NCI-H522 lung = test system: NCI-H522 lung
BT-549 breast = test system: BT-549 breast
SF-539 CNS = test system: SF-539 CNS
HS 578T breast = test system: HS 578T breast
IGROV1 ovarian = test system: IGROV1 ovarian
SW-620 colon = test system: SW-620 colon
DU-145 prostate = test system: DU-145 prostate
MDA-MB-231 breast = test system: MDA-MB-231 breast
CCRF-CEM leukemia = test system: CCRF-CEM leukemia
NCI/ADR-RES ovarian = test system: NCI/ADR-RES ovarian
MDA-N = test system: MDA-N
HCT-15 colon = test system: HCT-15 colon
U251 CNS = test system: U251 CNS
EKVX NSCLC = test system: EKVX NSCLC
SK-MEL-28 melanoma = test system: SK-MEL-28 melanoma
786-0 renal = test system: 786-0 renal
COLO 205 colon = test system: COLO 205 colon
NCI-H460 lung = test system: NCI-H460 lung
ACHN renal = test system: ACHN renal
SK-MEL-5 melanoma = test system: SK-MEL-5 melanoma
SF-295 CNS = test system: SF-295 CNS
T-47D breast = test system: T-47D breast
K-562 leukemia = test system: K-562 leukemia
OVCAR-4 ovarian = test system: OVCAR-4 ovarian
SNB-75 CNS = test system: SNB-75 CNS
OVCAR-3 ovarian = test system: OVCAR-3 ovarian
HCC-2998 colon = test system: HCC-2998 colon
NCI-H23 lung = test system: NCI-H23 lung
UACC-62 melanoma = test system: UACC-62 melanoma
SF-268 CNS = test system: SF-268 CNS
SNB-19 CNS = test system: SNB-19 CNS
A498 renal = test system: A498 renal
M14 melanoma = test system: M14 melanoma
NCI-H226 lung = test system: NCI-H226 lung
RXF 393 renal = test system: RXF 393 renal
HT29 colon = test system: HT29 colon
HCT-116 colon = test system: HCT-116 colon
SN12C renal = test system: SN12C renal
OVCAR-8 ovarian = test system: OVCAR-8 ovarian
UACC-257 melanoma = test system: UACC-257 melanoma
PC-3 prostate = test system: PC-3 prostate
HOP-62 NSCLC = test system: HOP-62 NSCLC
OVCAR-5 ovarian = test system: OVCAR-5 ovarian
RPMI-8226 leukemia = test system: RPMI-8226 leukemia
CAKI-1 renal = test system: CAKI-1 renal
SK-MEL-2 melanoma = test system: SK-MEL-2 melanoma
A549 NSCLC = test system: A549 NSCLC
SK-OV-3 ovarian = test system: SK-OV-3 ovarian
KM12 colon = test system: KM12 colon
UO-31 renal = test system: UO-31 renal
SR leukemia = test system: SR leukemia
LOX IMVI melanoma = test system: LOX IMVI melanoma

`N#Cc1c(Cl)nc2ccccc2c1N=[N+]=[N-]` gave a TGI (MOLT-4 leukemia) of 3.17 µM, a TGI (MDA-MB-435) of 17.7 µM and a TGI (MCF7 breast) of 22.5 µM. For the same molecule, the TGI (HL-60(TB) leukemia) was 3.3 µM, the TGI (TK-10 renal) was 9.82 µM and the TGI (HOP-92 NSCLC) was 3.32 µM. It also gave a TGI (MALME-3M melanoma) of 3.75 µM, a TGI (NCI-H522 lung) of 4.62 µM and a TGI (BT-549 breast) of 4.16 µM. The TGI (SF-539 CNS) was 4.6 µM, the TGI (HS 578T breast) was 17.3 µM and the TGI (IGROV1 ovarian) was 3.9 µM. It also gave a TGI (SW-620 colon) of 3.54 µM, a TGI (DU-145 prostate) of 28.1 µM and a TGI (MDA-MB-231 breast) of 3.62 µM. It also gave a TGI (CCRF-CEM leukemia) of 4.24 µM, a TGI (NCI/ADR-RES ovarian) of 37.3 µM and a TGI (MDA-N) of 26.8 µM. The TGI (HCT-15 colon) was 4.3 µM, the TGI (U251 CNS) was 12.5 µM and the TGI (EKVX NSCLC) was 5.53 µM. For the same molecule, the TGI (SK-MEL-28 melanoma) was 9.11 µM, the TGI (786-0 renal) was 7.17 µM and the TGI (COLO 205 colon) was 3.56 µM. For the same molecule, the TGI (NCI-H460 lung) was 21.4 µM, the TGI (ACHN renal) was 4.11 µM and the TGI (SK-MEL-5 melanoma) was 27.7 µM. For the same molecule, the TGI (SF-295 CNS) was 22.4 µM, the TGI (T-47D breast) was 5.83 µM and the TGI (K-562 leukemia) was 2.45 µM. For the same molecule, the TGI (OVCAR-4 ovarian) was 4.24 µM, the TGI (SNB-75 CNS) was 21.9 µM and the TGI (OVCAR-3 ovarian) was 3.76 µM. It also gave a TGI (HCC-2998 colon) of 14.4 µM, a TGI (NCI-H23 lung) of 6.3 µM and a TGI (UACC-62 melanoma) of 7.14 µM. For the same molecule, the TGI (SF-268 CNS) was 11.2 µM, the TGI (SNB-19 CNS) was 29.7 µM and the TGI (A498 renal) was 36.2 µM. The TGI (M14 melanoma) was 6.48 µM, the TGI (NCI-H226 lung) was 33.1 µM and the TGI (RXF 393 renal) was 2.93 µM. It also gave a TGI (HT29 colon) of 3.26 µM, a TGI (HCT-116 colon) of 3.06 µM and a TGI (SN12C renal) of 10.7 µM. It also gave a TGI (OVCAR-8 ovarian) of 7.7 µM, a TGI (UACC-257 melanoma) of 27.8 µM and a TGI (PC-3 prostate) of 8.44 µM. It also gave a TGI (HOP-62 NSCLC) of 32.7 µM, a TGI (OVCAR-5 ovarian) of 15.2 µM and a TGI (RPMI-8226 leukemia) of 7.89 µM. For the same molecule, the TGI (CAKI-1 renal) was 3.12 µM, the TGI (SK-MEL-2 melanoma) was 5.12 µM and the TGI (A549 NSCLC) was 35.3 µM. It also gave a TGI (SK-OV-3 ovarian) of 29 µM, a TGI (KM12 colon) of 17.8 µM and a TGI (UO-31 renal) of 9.4 µM. The TGI (SR leukemia) was 3.93 µM and the TGI (LOX IMVI melanoma) was 3.47 µM.
With `CC(C)(C)c1cc(OCc2nnc3sc(=S)[nH]n23)c(Cl)cc1OCc1nnc2sc(=S)[nH]n12` the TGI (MOLT-4 leukemia) was over 100 µM, the TGI (MDA-MB-435) was 55.1 µM and the TGI (MCF7 breast) was 31.6 µM. The TGI (HL-60(TB) leukemia) was 55.5 µM, the TGI (TK-10 renal) was 99.8 µM and the TGI (HOP-92 NSCLC) was 53.3 µM. It also gave a TGI (MALME-3M melanoma) of 46.9 µM, a TGI (NCI-H522 lung) of 37.8 µM and a TGI (BT-549 breast) of over 100 µM. The TGI (SF-539 CNS) was over 100 µM, the TGI (HS 578T breast) was over 100 µM and the TGI (IGROV1 ovarian) was 66.4 µM. For the same molecule, the TGI (SW-620 colon) was over 100 µM, the TGI (DU-145 prostate) was 94 µM and the TGI (MDA-MB-231 breast) was over 100 µM. It also gave a TGI (CCRF-CEM leukemia) of 37.3 µM, a TGI (NCI/ADR-RES ovarian) of over 100 µM and a TGI (MDA-N) of 40.6 µM. For the same molecule, the TGI (HCT-15 colon) was over 100 µM, the TGI (U251 CNS) was 65.2 µM and the TGI (EKVX NSCLC) was 85.4 µM. For the same molecule, the TGI (SK-MEL-28 melanoma) was 58.4 µM, the TGI (786-0 renal) was 95 µM and the TGI (COLO 205 colon) was over 100 µM. It also gave a TGI (NCI-H460 lung) of 81.8 µM, a TGI (ACHN renal) of 76.8 µM and a TGI (SK-MEL-5 melanoma) of 29.5 µM. For the same molecule, the TGI (SF-295 CNS) was over 100 µM, the TGI (T-47D breast) was 57.7 µM and the TGI (K-562 leukemia) was over 100 µM. The TGI (OVCAR-4 ovarian) was 80.6 µM, the TGI (SNB-75 CNS) was 92 µM and the TGI (OVCAR-3 ovarian) was 63.6 µM. The TGI (HCC-2998 colon) was 65.2 µM, the TGI (NCI-H23 lung) was 95.5 µM and the TGI (UACC-62 melanoma) was 32.6 µM. For the same molecule, the TGI (SF-268 CNS) was over 100 µM, the TGI (SNB-19 CNS) was over 100 µM and the TGI (A498 renal) was 88.7 µM. The TGI (M14 melanoma) was 75.7 µM, the TGI (NCI-H226 lung) was over 100 µM and the TGI (RXF 393 renal) was 69.1 µM. For the same molecule, the TGI (HT29 colon) was over 100 µM, the TGI (HCT-116 colon) was 50.6 µM and the TGI (SN12C renal) was over 100 µM. The TGI (OVCAR-8 ovarian) was over 100 µM, the TGI (UACC-257 melanoma) was 83.8 µM and the TGI (PC-3 prostate) was over 100 µM. For the same molecule, the TGI (HOP-62 NSCLC) was over 100 µM, the TGI (OVCAR-5 ovarian) was over 100 µM and the TGI (RPMI-8226 leukemia) was over 100 µM. The TGI (CAKI-1 renal) was 80.5 µM, the TGI (SK-MEL-2 melanoma) was 58.9 µM and the TGI (A549 NSCLC) was over 100 µM. For the same molecule, the TGI (SK-OV-3 ovarian) was over 100 µM, the TGI (KM12 colon) was 68.7 µM and the TGI (UO-31 renal) was 82.4 µM. For the same molecule, the TGI (SR leukemia) was 50.8 µM and the TGI (LOX IMVI melanoma) was 34.2 µM.
